Measured values published in patent US9266903B2, “Polymorphs of 2-(4-(2-(1-isopropyl-3-methyl-1H-1,2,4-triazole-5-yl)-5,6-dihydrobenzo[F]imidazo [1,2-D][1,4]oxazepin-9-yl)-1H-pyrazol-1-yl)-2-methylpropanamide, methods of production, and pharmaceutical uses thereof” (Genentech, Inc., priority 2013, dated 2016).
≈ marks a conversion by molar mass, not a printed value.

Columns and labels:
[1] = Stability of solvate/hydrate forms in the absence of solvent or at low humidity; format: physicochemical
[2] = Slurry in water (conversion to hydrate); format: physicochemical
[3] = Solid-state physical form stability (accelerated 40° C./75% RH, high humidity, API stability studies); format: physicochemical
[4] = Slurry interconversion experiments in pure isoamyl alcohol; format: physicochemical; details: Form B versus Form C in pure isoamyl alcohol
Description: Form C was derived only from isoamyl alcohol and was initially formed at 5° C. It is crystalline by XRPD (FIG. 13) and PLM. […] This weight loss was divided into two broad steps: a 5.2% weight loss was observed from ambient to 105° C. and an additional 9.8% weight loss was observed from 105-125° C. (bp of isoamyl alcohol: 130° C.). The theoretical weight loss for a mono-solvate is 16.1% and 8.7% for a hemi-solvate. The crystal structure of Form C was solved. Form C is the mono-isoamyl alcoholate. […] The solvate, Form C, was favored at temperatures of 15° C. or below.

[5] = Dynamic vapor sorption (DVS); format: physicochemical; details: for weight gain in DVS / dynamic moisture sorption experiment: at 95% RH
Description: Automated vapor sorption data were collected on a TA Instruments Q5000SA vapor sorption analyzer. NaCl and PVP were used as calibration standards. Samples were not dried prior to analysis. Adsorption and desorption data were collected at 25° C. over a range from 5 to 95% RH at 10% RH increments under a nitrogen purge. Samples were held at the corresponding RH for 1 hour prior to moving to the next RH range. Data were not corrected for the initial moisture content of the samples.

[6] = Isothermal TGA dehydration; format: physicochemical
Description: Weight change as a function of temperature was determined by TGA. […] 0.1-2 milligrams of the sample were placed in a DSC pan located on the sample holder. The sample holder was heated in the TGA from 25 to 300° C. at a heating rate of 10° C. min^−1. Dry N2 gas was used for purging. Isothermal experiments were conducted by heating the sample at 10° C./min to the desired temperature and then holding the sample at that temperature for at least 200 minutes.

[7] = pKa and log P by potentiometric titration; format: physicochemical
Description: GDC-0032 API is a white to off-white solid. It is crystalline as confirmed by the sharp peaks of its XRPD pattern and has a melting point of 258° C. Several physical forms of GDC-0032 free base, including an anhydrous form (Form B), several hydrates, and several solvates, have been identified to date. Form B has a melting point range of 256° C. to 258° C. Form B has been produced consistently in the API process to date. […] The reproducibility and stability of the crystalline form will be monitored during API synthesis and stability. GDC-0032 is non-hygroscopic, with less than 0.2% weight gain at 95% RH in the dynamic moisture sorption experiment.

PI3K = details: cited from earlier work
[8] = Solubility assessment as a function of pH and in different buffers and formulation vehicles; format: physicochemical
Source text: The solubility behavior of GDC-0032 API is summarized as a Function of pH and in Different Buffers and Formulation Vehicles

[9] = Solubility in solvents/solvent mixtures at two temperatures (visual dissolution, HPLC for suspensions); format: physicochemical
Description: The solubility of GDC-0032 was determined in various solvents/solvent mixtures at two different temperatures: Ethanol absolute, Methanol, Isopropanol, Acetone, Ethyl Acetate, Isopropyl acetate, Tetrahydrofuran, 2-Butanone, Methanol/Water (50/50), 2,2,2-Trifluoroethanol (TFE), 2-Butanone, TFE/Ethyl acetate (50/50), TFE/Acetone (50/50), TFE/Water (50/50), Acetonitrile, Acetonitrile/water (50/50), Acetone/water (50/50), Tert-butyl methyl ether, n-Heptane, Ethanol/Ethyl acetate (50/50), Ethanol/Acetone (50/50), Methanol/water (90/10), Ethanol/Acetonitrile (50/50).
For each experiment, approximately 5-10 mg of material was weighed in 40 mL vials. […] In each vial, the solvent was added to the solid in steps of 50 μL until dissolution or until a minimum concentration of 0.2 mg/mL was reached. Dissolution was assessed visually at two temperatures, room temperature (RT) and a higher temperature (Tmax=50 or 70° C., selected such that the boiling point of the solvent was higher than Tmax). Solubility was measured by HPLC for suspensions.

[10] = Solubility of GDC-0032 in methanol at high temperature; format: physicochemical; details: approximately 15 mg in 500 mL methanol, 24 hours equilibration
Description: Solubility of GDC-0032 in methanol at high temperature: Solubility of GDC-0032 in methanol at 45° C. and 55° C. was measured. Two slurries were prepared with approximately 15 mg of starting material and 500 mL of methanol. The slurries were subsequently placed in two ovens, at 45° C. and 55° C. each. After 24 hours of equilibration the two slurries were visually checked. In both cases the dissolution was not complete. The solids were separated from the mother liquor and were harvested both wet and dried for XRPD and digital imaging. The mother liquor was evaporated and the solids were also analyzed by XRPD and digital imaging.

Which “stability in the absence of the solvate solvent” value (from here on “stability in the absence”) [1] does the source give for C1COCCO1.Cc1nc(-c2cn3c(n2)-c2ccc(-c4cnn(C(C)(C)C(N)=O)c4)cc2OCC3)n(C(C)C)n1.Cc1nc(-c2cn3c(n2)-c2ccc(-c4cnn(C(C)(C)C(N)=O)c4)cc2OCC3)n(C(C)C)n1 [Form AA] here?
The value was “not stable”.

With C1CCOC1.Cc1nc(-c2cn3c(n2)-c2ccc(-c4cnn(C(C)(C)C(N)=O)c4)cc2OCC3)n(C(C)C)n1 [Form AC] as the compound, how does the “stability in the absence” value [1] read?
The value was “not stable”.

For CO.Cc1nc(-c2cn3c(n2)-c2ccc(-c4cnn(C(C)(C)C(N)=O)c4)cc2OCC3)n(C(C)C)n1 [Form A], which “form obtained on slurrying in the presence of water” value ([2]; 50° C.) is on record?
Its value is “Form D”.

What about the “form obtained from water slurry experiment” value ([2]; room temperature, after drying) of the same compound?
Its value is “mixture of Form A and Form D”.

With Cc1nc(-c2cn3c(n2)-c2ccc(-c4cnn(C(C)(C)C(N)=O)c4)cc2OCC3)n(C(C)C)n1 [Form B] as the compound, how does the “physical form after accelerated stability tests” value ([3]; 40° C. and 75% RH) read?
The value was “unchanged”.

What about the “form change when exposed to high humidity” value ([3]; high humidity for at least 6 months) of the same compound?
Its value is “does not exhibit any form change”.

And the “temperature at which the form is preferred/favored in slurry interconversion” value [4]?
Its value is at least 20 °C.

And the “conversion on slurrying in water” value ([2]; water, with and without Tween 80)?
Its value is “no conversion to the hydrate”.

What about the “physical form after the DVS experiment” value [5] of the same compound?
Its value is “still Form B”.

What about the “weight gain in DVS / dynamic moisture sorption experiment” value [5] of the same compound?
Its value is “less than 0.3%”.

Which “temperature at which the form is preferred/favored in slurry interconversion” value [4] does the source give for CC(C)CCO.Cc1nc(-c2cn3c(n2)-c2ccc(-c4cnn(C(C)(C)C(N)=O)c4)cc2OCC3)n(C(C)C)n1 [Form C] here?
Its value is at most 15 °C.

For Cc1nc(-c2cn3c(n2)-c2ccc(-c4cnn(C(C)(C)C(N)=O)c4)cc2OCC3)n(C(C)C)n1.O [Form D], which “time to complete dehydration on the TGA” value ([6]; isothermal at 60° C.) is on record?
The value was at most 40 min.

What about the “time to complete dehydration on the TGA” value ([6]; isothermal at 100° C.) of the same compound?
The value was at most 15 min.

Which “humidity at which Form X reversibly converts to Form Y” value ([1]; at 20° C.) does the source give for Cc1nc(-c2cn3c(n2)-c2ccc(-c4cnn(C(C)(C)C(N)=O)c4)cc2OCC3)n(C(C)C)n1.O [Form X] here?
The value was 10-20 % RH.

Which “stability in the absence” value [1] does the source give for CC(C)C(=O)C(C)C.Cc1nc(-c2cn3c(n2)-c2ccc(-c4cnn(C(C)(C)C(N)=O)c4)cc2OCC3)n(C(C)C)n1 [Form Z] here?
The value was “converts to Form B”.

With Cc1nc(-c2cn3c(n2)-c2ccc(-c4cnn(C(C)(C)C(N)=O)c4)cc2OCC3)n(C(C)C)n1 [GDC-0032, 2-(4-(2-(1-isopropyl-3-methyl-1H-1,2,4-triazol-5-yl)-5,6-dihydrobenzo[f]imidazo[1,2-d][1,4]oxazepin-9-yl)-1H-pyrazol-1-yl)-2-methylpropanamide] as the compound, how does the logP [7] read?
Its logP is 2.5.

And the pKa ([7]; weak base)?
Its pKa is 3.19.

What about the PI3K activity (PI3K) of the same compound?
The PI3K activity was “potent”.

What about the solubility ([8]; FaSSIF, pH 6.8, at 37° C.) of the same compound?
Its solubility is 22 µg/mL (≈ 47.8 µM).

And the solubility ([8]; FeSSIF, pH 5.0, at 37° C.)?
The solubility was 270 µg/mL (≈ 586 µM).

And the solubility ([8]; aqueous buffer, 50 mM phosphate buffer, pH 6.5, at room temperature)?
The solubility was 0.72 µg/mL (≈ 1.56 µM).

What about the solubility ([8]; simulated gastric fluid, 0.1N HCl, pH 1.1, at room temperature) of the same compound?
The solubility was 54 µg/mL (≈ 117 µM).

And the solubility ([8]; water)?
The solubility was 1.5 µg/mL (≈ 3.26 µM).

And the “solubility in 2,2,2-trifluoroethanol (TFE)” value [9]?
The value was “high solubility”.

What about the “solubility in various solvents/solvent mixtures” value ([9]; 23 listed solvents/mixtures, RT and Tmax 50 or 70° C.) of the same compound?
Its value is “soluble in all except for Ethyl Acetate, Isopropyl acetate, Tetrahydrofuran, Tert-butyl methyl ether, and n-Heptane”.

What about the “physical form conversion in ongoing stability studies for the API” value [3] of the same compound?
The value was “no physical form conversion”.

What about the dissolution in methanol ([10]; 45° C.) of the same compound?
The dissolution in methanol was “not complete”.

And the dissolution in methanol ([10]; 55° C.)?
The dissolution in methanol was “not complete”.

What about the “weight gain in DVS / dynamic moisture sorption experiment” value [5] of the same compound?
The value was “less than 0.2%”.
